Article PMC8841528, “Structural Basis for Unusual TCR CDR3β Usage Against an Immunodominant HIV-1 Gag Protein Peptide Restricted to an HLA-B*81:01 Molecule” (Frontiers in Immunology, 2022)

Tested on: T18A TCR
Test: Surface plasmon resonance (SPR) binding of T18A TCR to peptide/HLA-B*81:01 complexes
Conditions: result in words
Method: The SPR assays were performed as described earlier ([40]–[42]). Briefly, the protein was buffer -exchanged into PBS and biotinylated for 1h at room temperature. […] The Kd was determined by the fitting of a single-ligand binding model.

TPQDLNsML [TL9 escape variant, Ser at position 7, presented by HLA-B*81:01]
recognition of TL9 escape variant presented by HLA-B*81:01 by T18A TCR: could recognize

TPsDLNTML [TL9 escape variant, Ser at position 3, presented by HLA-B*81:01]
recognition of TL9 escape variant presented by HLA-B*81:01 by T18A TCR: could recognize
